Source: ChEMBL document CHEMBL3045378, “Synthesis and evaluation of 4-amino-5-phenyl-4H-[1,2,4]-triazole-3-thiol derivatives as antimicrobial agents” (2010)
Values after ≈ are worked out from the molar mass of the structure shown.

Columns and labels:
Type in all cases: functional
[1] = system: Trichoderma; test: Antifungal activity against Trichoderma sp. ATCC 5248 after 24 hr by paper disk diffusion method; conditions: ATCC 5248, 24 h
[2] = system: Pseudomonas aeruginosa; test: Antibacterial activity against Pseudomonas aeruginosa MTCC 3363 5 to 20 ug/ml after 24 hr by paper disk diffusion method
[3] = system: Escherichia coli; test: Antibacterial activity against Escherichia coli DH5[alpha] after 24 hr by paper disk diffusion method
[4] = system: Saccharomyces cerevisiae; test: Antifungal activity against Saccharomyces cerevisiae 180 after 24 hr by paper disk diffusion method; conditions: Saccharomyces cerevisiae, 180, 24 h
[5] = system: Aspergillus niger; test: Antifungal activity against Aspergillus niger ATCC 4578 at 5 to 20 ug/ml after 24 hr by paper disk diffusion method
[6] = system: Pseudomonas aeruginosa; test: Antibacterial activity against Pseudomonas aeruginosa MTCC 3363 after 24 hr by paper disk diffusion method; conditions: MTCC 3363, 24 h
[7] = system: Aspergillus niger; test: Antifungal activity against Aspergillus niger ATCC 4578 after 24 hr by paper disk diffusion method; conditions: ATCC 4578, 24 h
[8] = system: Bacillus subtilis; test: Antibacterial activity against Bacillus subtilis ATCC 6633 5 to 20 ug/ml after 24 hr by paper disk diffusion method
[9] = system: Fusarium verticillioides; test: Antifungal activity against Fusarium verticillioides NCIM 1276 at 5 to 20 ug/ml after 24 hr by paper disk diffusion method
[10] = system: Fusarium verticillioides; test: Antifungal activity against Fusarium verticillioides NCIM 1276 after 24 hr by paper disk diffusion method; conditions: NCIM 1276, 24 h
[11] = system: Escherichia coli; test: Antibacterial activity against Escherichia coli DH5[alpha] at 5 to 20 ug/ml after 24 hr by paper disk diffusion method
[12] = system: Saccharomyces cerevisiae; test: Antifungal activity against Saccharomyces cerevisiae 180 at 5 to 20 ug/ml after 24 hr by paper disk diffusion method
[13] = system: Bacillus subtilis; test: Antibacterial activity against Bacillus subtilis ATCC 6633 after 24 hr by paper disk diffusion method; conditions: ATCC 6633, 24 h
[14] = system: Pseudomonas fluorescens; test: Antibacterial activity against Pseudomonas fluorescens ATCC 3458 5 to 20 ug/ml after 24 hr by paper disk diffusion method
[15] = system: Trichoderma; test: Antifungal activity against Trichoderma sp. ATCC 5248 at 5 to 20 ug/ml after 24 hr by paper disk diffusion method
[16] = system: Pseudomonas fluorescens; test: Antibacterial activity against Pseudomonas fluorescens ATCC 3458 after 24 hr by paper disk diffusion method; conditions: ATCC 3458, 24 h

MIC [1] [µg/mL]	MIC [3] [µg/mL]	MIC [4] [µg/mL]	MIC [6] [µg/mL]	MIC [7] [µg/mL]	MIC [10] [µg/mL]	MIC [13] [µg/mL]	MIC [16] [µg/mL]	Structure (SMILES)	diameter of the inhibition zone (DIZ) [2] [mm]	diameter of the inhibition zone (DIZ) [5] [mm]	diameter of the inhibition zone (DIZ) [8] [mm]	diameter of the inhibition zone (DIZ) [9] [mm]	diameter of the inhibition zone (DIZ) [11] [mm]	diameter of the inhibition zone (DIZ) [12] [mm]	diameter of the inhibition zone (DIZ) [14] [mm]	diameter of the inhibition zone (DIZ) [15] [mm]
12.5 (≈ 60 µM)	12.5 (≈ 60 µM)	12.5 (≈ 60 µM)	12.5 (≈ 60 µM)	12.5 (≈ 60 µM)	12.5 (≈ 60 µM)	12.5 (≈ 60 µM)	12.5 (≈ 60 µM)	Nn1c(S)nnc1-c1ccccc1O	16	16	16	16	16	16	16	16
	5 (≈ 9.02 µM)		5 (≈ 9.02 µM)			5 (≈ 9.02 µM)	5 (≈ 9.02 µM)	CO/N=C(\C(=O)N[C@@H]1C(=O)N2C(C(=O)O)=C(CSc3nc(=O)c(O)nn3C)CS[C@H]12)c1csc(N)n1 [CEFTRIAXONE]	18		16		16		16	
10 (≈ 33 µM)	10 (≈ 33 µM)	10 (≈ 33 µM)	10 (≈ 33 µM)	10 (≈ 33 µM)	10 (≈ 33 µM)	10 (≈ 33 µM)	10 (≈ 33 µM)	Nn1c(Sc2ccc(Cl)cc2)nnc1-c1ccccc1	16	16	16	16	16	16	16	16
15 (≈ 64 µM)	15 (≈ 64 µM)	15 (≈ 64 µM)	15 (≈ 64 µM)	15 (≈ 64 µM)	15 (≈ 64 µM)	15 (≈ 64 µM)	15 (≈ 64 µM)	CC(=O)Nn1c(S)nnc1-c1ccccc1	<10	<12	<10	<12	<10	<12	<10	<12
15 (≈ 41.9 µM)	15 (≈ 41.9 µM)	15 (≈ 41.9 µM)	15 (≈ 41.9 µM)	15 (≈ 41.9 µM)	15 (≈ 41.9 µM)	15 (≈ 41.9 µM)	15 (≈ 41.9 µM)	Nn1c(Sc2ccc([N+](=O)[O-])cc2[N+](=O)[O-])nnc1-c1ccccc1	<10	<12	<10	<12	<10	<12	<10	<12
10 (≈ 28.8 µM)	10 (≈ 28.8 µM)	10 (≈ 28.8 µM)	10 (≈ 28.8 µM)	10 (≈ 28.8 µM)	10 (≈ 28.8 µM)	10 (≈ 28.8 µM)	10 (≈ 28.8 µM)	Nn1c(Sc2ccc(Br)cc2)nnc1-c1ccccc1	16	16	16	16	16	16	16	16
5 (≈ 13 µM)	5 (≈ 13 µM)	5 (≈ 13 µM)	5 (≈ 13 µM)	5 (≈ 13 µM)	5 (≈ 13 µM)	5 (≈ 13 µM)	5 (≈ 13 µM)	Nn1c(Sc2ccc(C(Cl)(Cl)Cl)cc2)nnc1-c1ccccc1	16	14	14	18	14	16	14	22
12.5 (≈ 65 µM)	12.5 (≈ 65 µM)	12.5 (≈ 65 µM)	12.5 (≈ 65 µM)	12.5 (≈ 65 µM)	12.5 (≈ 65 µM)	12.5 (≈ 65 µM)	12.5 (≈ 65 µM)	Nn1c(S)nnc1-c1ccccc1	16	16	16	16	16	16	16	16
15 (≈ 40.9 µM)	15 (≈ 40.9 µM)	15 (≈ 40.9 µM)	15 (≈ 40.9 µM)	15 (≈ 40.9 µM)	15 (≈ 40.9 µM)	15 (≈ 40.9 µM)	15 (≈ 40.9 µM)	Nn1c(Sc2ccc(S(=O)(=O)Cl)cc2)nnc1-c1ccccc1	<10	<12	<10	<12	<10	<12	<10	<12

Structure (SMILES)	MIC [1] [µg/mL]	MIC [3] [µg/mL]	MIC [4] [µg/mL]	MIC [6] [µg/mL]	MIC [7] [µg/mL]	MIC [10] [µg/mL]	MIC [13] [µg/mL]	MIC [16] [µg/mL]	diameter of the inhibition zone (DIZ) [2] [mm]	diameter of the inhibition zone (DIZ) [5] [mm]	diameter of the inhibition zone (DIZ) [8] [mm]	diameter of the inhibition zone (DIZ) [9] [mm]	diameter of the inhibition zone (DIZ) [11] [mm]	diameter of the inhibition zone (DIZ) [12] [mm]	diameter of the inhibition zone (DIZ) [14] [mm]	diameter of the inhibition zone (DIZ) [15] [mm]
CC(=O)N1CCN(c2ccc(OCC3COC(Cn4ccnc4)(c4ccc(Cl)cc4Cl)O3)cc2)CC1 (centres undefined) [KETOCONAZOLE]	5 (≈ 9.41 µM)		5 (≈ 9.41 µM)		5 (≈ 9.41 µM)	5 (≈ 9.41 µM)				16		20		18		25
